Test results taken from the supplement of paper PMC10307832.

How the values were obtained:
Assay in all cases: relative viability (nuclei count vs DMSO), 5 days (fraction); higher = more cells survive
[1] = compound: CN(c1ncccc1CNc1nc(Nc2ccc3c(c2)CC(=O)N3)ncc1C(F)(F)F)S(C)(=O)=O + Cc1cc(Nc2cc(N3CCN(C)CC3)nc(Sc3ccc(NC(=O)C4CC4)cc3)n2)n[nH]1 [Tozasertib] (partner 0.1 µM)
How it was run: (§1)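 Lung cancer cell lines, seeded in 1536-well plates, were treated the following day by pin tool with a single drug or with five library-drug doses (not always all listed) in √10 steps on top of a fixed anchor-drug dose. Cells were fixed and nuclei stained in one step after 5 days, and nuclei were counted. Relative viability is the nuclei count for treated wells divided by that for vehicle wells, reported as medians of duplicate plates.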

[2] = compound: CN(c1ncccc1CNc1nc(Nc2ccc3c(c2)CC(=O)N3)ncc1C(F)(F)F)S(C)(=O)=O + COc1cc2c(Oc3ccc(NC(=O)C4(C(=O)Nc5ccc(F)cc5)CC4)cc3F)ccnc2cc1OCCCN1CCOCC1 [Foretinib] (partner 0.25 µM)
How it was run: as §1

[3] = compound: CN(c1ncccc1CNc1nc(Nc2ccc3c(c2)CC(=O)N3)ncc1C(F)(F)F)S(C)(=O)=O + NC(=O)Nc1cc(-c2cccc(F)c2)sc1C(=O)N[C@H]1CCCNC1 [AZD7762] (partner 0.2 µM)
How it was run: as §1

[4] = compound: CN(c1ncccc1CNc1nc(Nc2ccc3c(c2)CC(=O)N3)ncc1C(F)(F)F)S(C)(=O)=O + CCNC(=O)c1noc(-c2cc(C(C)C)c(O)cc2O)c1-c1ccc(CN2CCOCC2)cc1 [Luminespib] (partner 0.01 µM)
How it was run: as §1

Cell Line | relative viability ([1]; first compound 0.01 µM) | relative viability ([1]; first compound 0.03162 µM) | relative viability ([1]; first compound 0.1 µM) | relative viability ([1]; first compound 0.3162 µM) | relative viability ([1]; first compound 1 µM) | relative viability ([2]; first compound 0.01 µM) | relative viability ([2]; first compound 0.03162 µM) | relative viability ([2]; first compound 0.1 µM) | relative viability ([2]; first compound 0.3162 µM) | relative viability ([2]; first compound 1 µM) | relative viability ([3]; first compound 0.01 µM) | relative viability ([3]; first compound 0.03162 µM) | relative viability ([3]; first compound 0.1 µM) | relative viability ([3]; first compound 0.3162 µM) | relative viability ([3]; first compound 1 µM) | relative viability ([4]; first compound 0.01 µM) | relative viability ([4]; first compound 0.03162 µM) | relative viability ([4]; first compound 0.1 µM) | relative viability ([4]; first compound 0.3162 µM) | relative viability ([4]; first compound 1 µM)
LC-2-ad | 0.417 | 0.433 | 0.546 | 0.426 | 0.442 | 0.851 | 0.865 | 0.967 | 0.939 | 0.933 | 0.864 | 0.808 | 0.892 | 0.768 | 0.811 | 1.22 | 1.05 | 0.967 | 0.98 | 0.845
LCLC-97TM1 | 0.281 | 0.194 | 0.256 | 0.218 | 0.18 | 0.97 | 0.986 | 0.867 | 0.864 | 0.844 | 0.264 | 0.278 | 0.218 | 0.267 | 0.195 | 0.779 | 0.854 | 0.788 | 0.81 | 0.632
LCLC-103H | 0.469 | 0.457 | 0.414 | 0.415 | 0.466 | 0.677 | 0.751 | 0.765 | 0.766 | 0.759 | 0.72 | 0.711 | 0.734 | 0.745 | 0.815 | 0.754 | 0.927 | 0.918 | 0.892 | 0.752
LK-2 | 0.201 | 0.163 | 0.174 | 0.169 | 0.182 | 1.02 | 1.06 | 1.21 | 1.3 | 1.52 | 0.542 | 0.517 | 0.413 | 0.434 | 0.397 | 0.175 | 0.174 | 0.165 | 0.201 | 0.235
LOU-NH91 | 0.641 | 0.674 | 0.647 | 0.645 | 0.576 | 0.945 | 1.02 | 0.88 | 1.04 | 0.999 | 0.793 | 0.754 | 0.735 | 0.746 | 0.79 | 0.322 | 0.366 | 0.313 | 0.351 | 0.355
LU99A | 0.319 | 0.301 | 0.297 | 0.258 | 0.246 | 0.838 | 0.873 | 0.841 | 0.947 | 0.929 | 0.377 | 0.507 | 0.509 | 0.572 | 0.476 | 0.316 | 0.264 | 0.323 | 0.325 | 0.246
LXF-289 | 0.176 | 0.178 | 0.242 | 0.18 | 0.17 | 1.04 | 1.01 | 1.02 | 1.04 | 0.968 | 1.16 | 1.17 | 1.1 | 1.13 | 1.2 | 0.679 | 0.728 | 0.645 | 0.656 | 0.622
NCI-H23 | 0.494 | 0.356 | 0.407 | 0.295 | 0.351 | 0.914 | 1.08 | 1.08 | 1.06 | 0.861 | 0.245 | 0.276 | 0.243 | 0.289 | 0.382 | 0.182 | 0.204 | 0.207 | 0.228 | 0.207
NCI-H322M | 0.505 | 0.504 | 0.491 | 0.504 | 0.472 | 1.05 | 1.09 | 0.986 | 1.21 | 1.31 | 0.584 | 0.556 | 0.62 | 0.663 | 0.813 | 0.798 | 1 | 0.966 | 1.03 | 0.896
NCI-H358 | 0.0908 | 0.102 | 0.0923 | 0.103 | 0.0817 | 0.717 | 0.659 | 0.782 | 0.638 | 0.517 | 0.552 | 0.553 | 0.381 | 0.533 | 0.339 | 0.292 | 0.465 | 0.397 | 0.247 | 0.214
NCI-H441 | 0.697 | 0.628 | 0.581 | 0.583 | 0.512 | 0.974 | 1.14 | 0.999 | 1.17 | 0.761 | 1.07 | 1.11 | 1.04 | 1.18 | 1.22 | 0.435 | 0.322 | 0.369 | 0.331 | 0.287
NCI-H460 | 0.499 | 0.464 | 0.491 | 0.137 | 0.396 | 1.1 | 1.09 | 0.892 | 1.02 | 0.972 | 0.714 | 0.824 | 0.643 | 0.661 | 0.684 | 0.0312 | 0.0306 | 0.0284 | 0.0265 | 0.0325
NCI-H596 | 0.886 | 0.938 | 0.899 | 0.813 | 0.632 | 0.848 | 0.859 | 0.863 | 0.806 | 0.861 | 0.999 | 1.1 | 0.948 | 1.05 | 1.05 | 0.943 | 1.02 | 0.951 | 1.06 | 0.968
NCI-H647 | 0.315 | 0.224 | 0.498 | 0.353 | 0.248 | 1.18 | 1.04 | 1.14 | 1.1 | 1.22 | 0.383 | 0.515 | 0.611 | 0.566 | 0.471 | 0.127 | 0.163 | 0.122 | 0.103 | 0.119
NCI-H650 | 0.713 | 0.712 | 0.637 | 0.622 | 0.608 | 1.02 | 0.953 | 0.935 | 0.796 | 0.853 | 0.909 | 1.08 | 0.822 | 0.948 | 0.995 | 0.773 | 0.779 | 0.655 | 0.728 | 0.654
NCI-H727 | 0.675 | 0.549 | 0.571 | 0.543 | 0.52 | 0.836 | 0.873 | 0.932 | 1 | 0.891 | 0.595 | 0.555 | 0.447 | 0.842 | 0.69 | 0.407 | 0.232 | 0.289 | 0.25 | 0.367
